In patent publication US8435978B2, “Substituted sulfonamide compounds” (Gruenenthal GmbH, priority 2006, dated 2013):
Structures can show the parent of a compound that is named as a salt.

Experiments:
human B1R receptor = target: T1, human B1R receptor (Homo sapiens, UniProt P46663); assay: Functional study on the bradykinin receptor 1 (B1R), FLIPR Ca2+ assay, hB1R cells; assay type: cell-based; settings: agonist Lys-Des-Arg9-bradykinin 0.5 nM, % inhibition compared with the maximum achievable inhibition; for inhibition at 10 µM: CHO-K1, test substance 10 μM, read-out: B1R Antagonism, human [10 μM] % Inhibition
T1 construct: host or cells: CHO K1 cells (Chinese hamster ovary), stably transfected
T1 sequence (P46663 1-353): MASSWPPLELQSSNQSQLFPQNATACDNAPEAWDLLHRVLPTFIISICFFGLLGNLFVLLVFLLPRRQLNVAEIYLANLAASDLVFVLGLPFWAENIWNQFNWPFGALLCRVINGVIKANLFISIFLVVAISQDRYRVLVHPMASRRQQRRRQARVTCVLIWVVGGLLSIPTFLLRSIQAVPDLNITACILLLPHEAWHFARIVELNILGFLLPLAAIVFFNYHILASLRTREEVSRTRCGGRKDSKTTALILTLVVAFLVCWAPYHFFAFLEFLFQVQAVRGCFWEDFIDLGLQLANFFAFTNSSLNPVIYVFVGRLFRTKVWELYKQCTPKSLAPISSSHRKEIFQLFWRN
In short: (§1)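 Readout: peak Fluo-4 Ca2+ fluorescence, FLIPR. Stable CHO K1 hB1R or rB1R cells; cpd 10 μM, 10 min preincubation, then agonist (hB1R: Lys-Des-Arg9-BK 0.5 nM; rB1R: Des-Arg9-BK 100 nM). Value = % inhibition relative to maximal achievable inhibition.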

B1R receptor of the rat = target: T2, B1R receptor of the rat (Rattus norvegicus, UniProt P97583); assay: Functional study on the bradykinin receptor 1 (B1R), FLIPR Ca2+ assay, rB1R cells; assay type: cell-based; settings: agonist Des-Arg9-bradykinin 100 nM, % inhibition compared with the maximum achievable inhibition; for inhibition at 10 µM: CHO-K1, test substance 10 μM, read-out: B1R Antagonism, rat [10 μM] % Inhibition
T2 construct: host or cells: CHO K1 cells (Chinese hamster ovary), stably transfected
T2 sequence (P97583 1-337): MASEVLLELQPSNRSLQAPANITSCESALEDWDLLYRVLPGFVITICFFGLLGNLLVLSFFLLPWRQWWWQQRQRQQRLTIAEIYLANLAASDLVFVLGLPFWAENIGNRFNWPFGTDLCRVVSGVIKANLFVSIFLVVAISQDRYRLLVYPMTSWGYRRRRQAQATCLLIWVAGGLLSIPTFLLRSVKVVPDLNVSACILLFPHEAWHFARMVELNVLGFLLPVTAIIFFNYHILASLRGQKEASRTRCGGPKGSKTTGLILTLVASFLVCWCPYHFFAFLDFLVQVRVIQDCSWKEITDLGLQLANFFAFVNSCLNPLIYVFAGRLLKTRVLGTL
In short: as §1

SMILES	inhibition at 10 µM (human B1R receptor) [%]	inhibition at 10 µM (B1R receptor of the rat) [%]	B1R Antagonism, human [10 μM] % Inhibition (human B1R receptor; test substance 10 μM, hB1R CHO K1 cells) [%]	B1R Antagonism, rat [10 μM] % Inhibition (B1R receptor of the rat; test substance 10 μM, rB1R CHO K1 cells) [%]
COc1cc(C)c(S(=O)(=O)N2CCCCC2COCC(=O)Nc2cc(-c3cccc(F)c3)[nH]n2)c(C)c1 (stereo not drawn) [Example 542, N-(5-(3-fluorophenyl)-1H-pyrazol-3-yl)-2-((1-(4-methoxy-2,6-dimethylphenylsulfonyl)piperidin-2-yl)methoxy)acetamide]	49.2	107	–	–
COc1cc(C)c(S(=O)(=O)N2CCCC2COCC(=O)Nc2ccc(N3CCN(C)CC3)cc2)c(C)c1 (stereo not drawn) [Example 301, 2-((1-(4-methoxy-2,6-dimethylphenylsulfonyl)pyrrolidin-2-yl)methoxy)-N-(4-(4-methylpiperazin-1-yl)phenyl)acetamide]	106	101	–	–
O=C(COCC1CCCCN1S(=O)(=O)c1c(Cl)cccc1Cl)N1CCC(CCN2CCCCC2)CC1 (stereo not drawn) [Example 279, 2-((1-(2,6-dichlorophenylsulfonyl)piperidin-2-yl)methoxy)-1-(4-(2-(piperidin-1-yl)ethyl)piperidin-1-yl)ethanone]	104	95.4	–	–
O=C(COCC1CCCCN1S(=O)(=O)c1c(Cl)cccc1Cl)N1CCN(c2ncc(Cl)cc2Cl)CC1 (stereo not drawn) [Example 551, 2-((1-(2,6-dichlorophenylsulfonyl)piperidin-2-yl)methoxy)-1-(4-(3,5-dichloropyridin-2-yl)piperazin-1-yl)ethanone]	52.7	102	–	–
O=C(COCC1CCCCN1S(=O)(=O)c1c(Cl)cccc1Cl)N1CCN(Cc2ccccc2F)CC1 (stereo not drawn) [Example 454, 2-((1-(2,6-dichlorophenylsulfonyl)piperidin-2-yl)methoxy)-1-(4-(2-fluorobenzyl)piperazin-1-yl)ethanone]	102	100	–	–
CN1CCC(N2CCN(C(=O)COCC3CCCCN3S(=O)(=O)c3cccc4cnccc34)CC2)CC1 (stereo not drawn) [Example 176, 2-((1-(isoquinolin-5-ylsulfonyl)piperidin-2-yl)methoxy)-1-(4-(1-methylpiperidin-4-yl)piperazin-1-yl)ethanone dihydrochloride]	-24.8	36.5	–	–
CCN(CC)CCN(CCN(CC)CC)C(=O)COCC1Cc2ccccc2CN1S(=O)(=O)c1ccc(Cl)c(Cl)c1 (stereo not drawn) [Example 43, 2-[2-(3,4-dichloro-phenylsulfonyl)-1,2,3,4-tetrahydro-isoquinolin-3-ylmethoxy]-N,N-bis-(2-diethylamino-ethyl)-acetamide]	69.9	24.2	–	–
COc1cc(C)c(S(=O)(=O)N2CCCCC2COCC(=O)N(C)CCC2CCC(N(C)C)CC2)c(C)c1 (stereo not drawn) [Example 209, N-(2-(4-(dimethylamino)cyclohexyl)ethyl)-2-((1-(4-methoxy-2,6-dimethylphenylsulfonyl)piperidin-2-yl)methoxy)-N-methylacetamide]	104	99.9	–	–
COc1cc(C)c(S(=O)(=O)N2CCCCC2COCC(=O)N2CCN(Cc3ccc4nccnc4c3)CC2)c(C)c1 (stereo not drawn) [Example 166, 2-((1-(4-methoxy-2,6-dimethylphenylsulfonyl)piperidin-2-yl)methoxy)-1-(4-(quinoxalin-6-ylmethyl)piperazin-1-yl)ethanone]	99.4	99.3	–	–
O=C(COCC1CCCN1S(=O)(=O)c1c(Cl)cc(Cl)cc1Cl)NCc1ccc(CN2CCOCC2)cc1 (stereo not drawn) [Example 49, N-(4-morpholin-4-ylmethyl-benzyl)-2-[1-(2,4,6-trichloro-phenylsulfonyl)-pyrrolidin-2-ylmethoxy]-acetamide]	65.9	92.3	–	–
COc1cc(C)c(S(=O)(=O)N2CCCCC2COCC(=O)NC(CN2CCN(C)CC2)c2ccccc2)c(C)c1 (stereo not drawn) [Example 263, 2-((1-(4-methoxy-2,6-dimethylphenylsulfonyl)piperidin-2-yl)methoxy)-N-(2-(4-methylpiperazin-1-yl)-1-phenylethyl)acetamide]	100	97.8	–	–
COc1ccc(S(=O)(=O)N2CCCCC2COCC(=O)N2CCN(c3nc(CCc4ccccc4)cs3)CC2)cc1 (stereo not drawn) [Example 220, 2-((1-(4-methoxyphenylsulfonyl)piperidin-2-yl)methoxy)-1-(4-(4-phenethylthiazol-2-yl)piperazin-1-yl)ethanone]	15.3	86.3	–	–
COc1cc(C)c(S(=O)(=O)N2CCCCC2COCC(=O)N2CCN(Cc3ccc(Br)cc3)CC2)c(C)c1 (stereo not drawn) [Example 382, 1-(4-(4-bromobenzyl)piperazin-1-yl)-2-((1-(4-methoxy-2,6-dimethylphenylsulfonyl)piperidin-2-yl)methoxy)ethanone]	103	101	–	–
COc1cc(C)c(S(=O)(=O)N2CCCCC2COCC(=O)N2CCN(C3CCOCC3)CC2)c(C)c1 (stereo not drawn) [Example 104, 2-((1-(4-methoxy-2,6-dimethylphenylsulfonyl)piperidin-2-yl)methoxy)-1-(4-(tetrahydro-2H-pyran-4-yl)piperazin-1-yl)ethanone]	105	101	–	–
COc1cc(C)c(S(=O)(=O)N2CCCCC2COCC(=O)N2CCC(N3CCN4CCCCC4C3)CC2)c(C)c1.Cl.Cl (stereo not drawn) [Example 99]	–	–	103.76	100.08
COc1cc(C)c(S(=O)(=O)N2CCCC2COCC(=O)N2CCN(C)CC2c2ccccc2)c(C)c1 (stereo not drawn) [Example 445, 2-((1-(4-methoxy-2,6-dimethylphenylsulfonyl)pyrrolidin-2-yl)methoxy)-1-(4-methyl-2-phenylpiperazin-1-yl)ethanone]	102	98.6	–	–
O=C(COCC1CCCCN1S(=O)(=O)c1cccc2ccccc12)N1CCC(N2CCCC2)CC1 (stereo not drawn) [Example 23, 2-((1-(naphthalen-1-ylsulfonyl)piperidin-2-yl)methoxy)-1-(4-(pyrrolidin-1-yl)piperidin-1-yl)ethanone]	92.3	85.3	–	–
COc1cc(C)c(S(=O)(=O)N2CCCCC2COCC(=O)NCc2ccccc2N2CCN(C)CC2)c(C)c1 (stereo not drawn) [Example 432, 2-((1-(4-methoxy-2,6-dimethylphenylsulfonyl)piperidin-2-yl)methoxy)-N-(2-(4-methylpiperazin-1-yl)benzyl)acetamide]	94	100	–	–
CN1CCC(N2CCN(C(=O)COCC3CCCCN3S(=O)(=O)c3csc4ccccc34)CC2)CC1 (stereo not drawn) [Example 137, 2-((1-(benzo[b]thiophen-3-ylsulfonyl)piperidin-2-yl)methoxy)-1-(4-(1-methylpiperidin-4-yl)piperazin-1-yl)ethanone]	102	98.8	–	–
Cc1cccc(CC2CCCN2C(=O)COCC2CCCCN2S(=O)(=O)c2c(Cl)cccc2Cl)n1 (stereo not drawn) [Example 458, 2-((1-(2,6-dichlorophenylsulfonyl)piperidin-2-yl)methoxy)-1-(2-((6-methylpyridin-2-yl)methyl)pyrrolidin-1-yl)ethanone]	103	100	–	–
COc1cc(C)c(S(=O)(=O)N2CCCCC2COCC(=O)N2CCCN(Cc3ccccc3)CC2)c(C)c1 (stereo not drawn) [Example 362, 1-(4-benzyl-1,4-diazepan-1-yl)-2-((1-(4-methoxy-2,6-dimethylphenylsulfonyl)piperidin-2-yl)methoxy)ethanone]	103	102	–	–
